According to patent US8383646B2, “Therapeutic ((bicylicheteroaryl)imidazolyl) methylheteroaryl compounds” (Allergan, Inc., priority 2007, dated 2013):

Key:
Type in all cases: cell-based
alpha2A receptor = molecular target: T1, alpha2A receptor (Homo sapiens, UniProt P08913); test: RSAT assay, alpha2A receptor; conditions: for Alpha 2A intrinsic activity (efficacy): ratio of maximal effect to that of standard full agonist brimonidine (UK14304), value in parentheses; for EC50: transfected NIH-3T3 cells with Gq/i5, ND = not determinable at concentrations less than 10 micromolar, read-out: Alpha 2A potency (EC50)
T1 construct: expressed in transfected cells; host or cells: NIH-3T3 cells
T1 sequence (P08913 1-465): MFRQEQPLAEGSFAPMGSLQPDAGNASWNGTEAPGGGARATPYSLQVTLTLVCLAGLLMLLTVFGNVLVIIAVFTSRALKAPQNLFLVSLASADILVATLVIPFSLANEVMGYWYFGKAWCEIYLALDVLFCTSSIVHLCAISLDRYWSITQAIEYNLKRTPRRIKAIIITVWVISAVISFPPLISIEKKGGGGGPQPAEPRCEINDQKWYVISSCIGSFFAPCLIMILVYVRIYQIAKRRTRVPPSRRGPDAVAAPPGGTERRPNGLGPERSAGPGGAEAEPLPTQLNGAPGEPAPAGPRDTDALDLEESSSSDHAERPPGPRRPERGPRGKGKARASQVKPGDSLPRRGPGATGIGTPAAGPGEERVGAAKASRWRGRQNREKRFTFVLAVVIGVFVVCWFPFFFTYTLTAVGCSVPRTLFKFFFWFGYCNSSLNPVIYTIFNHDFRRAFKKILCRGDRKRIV
Protocol: (§1) Receptor Selection and Amplification Technology (RSAT) Assay
(§2) The RSAT assay measures a receptor-mediated loss of contact inhibition that results in selective proliferation of receptor-containing cells in a mixed population of confluent cells. The increase in cell number is assessed with an appropriate transfected marker gene such as β-galactosidase, the activity of which can be easily measured in a 96-well format. Receptors that activate the G protein, Gq, elicit this response. Alpha2 receptors, which normally couple to Gi, activate the RSAT response when coexpressed with a hybrid Gq protein that has a Gi receptor recognition domain, called Gq/i5.
(§3) NIH-3T3 cells are plated at a density of 2×10^6 cells in 15 cm dishes and maintained in Dulbecco's modified Eagle's medium supplemented with 10% calf serum. One day later, cells are cotransfected by calcium phosphate precipitation with mammalian expression plasmids encoding p-SV-β-galactosidase (5-10 μg), receptor (1-2 μg) and G protein (1-2 μg). 40 μg salmon sperm DNA may also be included in the transfection mixture. Fresh media is added on the following day and 1-2 days later, cells are harvested and frozen in 50 assay aliquots. Cells are thawed and 100 μl added to 100 μl aliquots of various concentrations of drugs in triplicate in 96-well dishes. Incubations continue 72-96 hr at 37° C. After washing with phosphate-buffered saline, β-galactosidase enzyme activity is determined by adding 200 μl of the chromogenic substrate (consisting of 3.5 mM o-nitrophenyl-β-D-galactopyranoside and 0.5% nonidet P-40 in phosphate buffered saline), incubating overnight at 30° C. and measuring optical density at 420 nm. The absorbance is a measure of enzyme activity, which depends on cell number and reflects a receptor-mediated cell proliferation. The efficacy or intrinsic activity is calculated as a ratio of the maximal effect of the drug to the maximal effect of a standard full agonist for each receptor subtype. Brimonidine, also called UK14304, the chemical structure of which is shown below, is used as the standard agonist for the alpha2A, alpha2B and alpha2C receptors. The EC50 is the concentration at which the drug effect is half of its maximal effect.
(§4) The results of the RSAT assay with several exemplary compounds of the invention are disclosed in Table 1 above together with the chemical formulas of these exemplary compounds. EC50 values are nanomolar. ND stands for “not determinable” at concentrations less than 10 micromolar. IA stands for “intrinsic activity.”

alpha2B receptor = molecular target: T2, alpha2B receptor (Homo sapiens, UniProt P18089); test: RSAT assay, alpha2B receptor; conditions: for Alpha 2B intrinsic activity (efficacy): ratio of maximal effect to that of standard full agonist brimonidine (UK14304), value in parentheses; for EC50: transfected NIH-3T3 cells with Gq/i5, ND = not determinable at concentrations less than 10 micromolar, read-out: Alpha 2B potency (EC50)
T2 construct: expressed in transfected cells; host or cells: NIH-3T3 cells
T2 sequence (P18089 1-450): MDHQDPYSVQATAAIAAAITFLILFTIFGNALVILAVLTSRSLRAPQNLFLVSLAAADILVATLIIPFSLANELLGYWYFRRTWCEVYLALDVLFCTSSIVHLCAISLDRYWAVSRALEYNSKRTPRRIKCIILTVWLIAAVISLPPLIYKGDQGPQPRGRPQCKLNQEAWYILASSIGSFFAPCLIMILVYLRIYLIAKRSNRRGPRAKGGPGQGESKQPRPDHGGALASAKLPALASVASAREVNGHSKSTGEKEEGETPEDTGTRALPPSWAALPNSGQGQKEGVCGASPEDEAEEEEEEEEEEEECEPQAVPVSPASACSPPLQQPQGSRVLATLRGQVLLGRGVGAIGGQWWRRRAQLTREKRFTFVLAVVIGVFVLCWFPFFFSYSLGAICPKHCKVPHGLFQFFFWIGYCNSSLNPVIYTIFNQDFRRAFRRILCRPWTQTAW
Protocol: as §1, §2, §3, §4

alpha2C receptor = molecular target: T3, alpha2C receptor (Homo sapiens, UniProt P18825); test: RSAT assay, alpha2C receptor; conditions: for Alpha 2C intrinsic activity (efficacy): ratio of maximal effect to that of standard full agonist brimonidine (UK14304), value in parentheses; for EC50: transfected NIH-3T3 cells with Gq/i5, ND = not determinable at concentrations less than 10 micromolar, read-out: Alpha 2C potency (EC50)
T3 construct: expressed in transfected cells; host or cells: NIH-3T3 cells
T3 sequence (P18825 1-462): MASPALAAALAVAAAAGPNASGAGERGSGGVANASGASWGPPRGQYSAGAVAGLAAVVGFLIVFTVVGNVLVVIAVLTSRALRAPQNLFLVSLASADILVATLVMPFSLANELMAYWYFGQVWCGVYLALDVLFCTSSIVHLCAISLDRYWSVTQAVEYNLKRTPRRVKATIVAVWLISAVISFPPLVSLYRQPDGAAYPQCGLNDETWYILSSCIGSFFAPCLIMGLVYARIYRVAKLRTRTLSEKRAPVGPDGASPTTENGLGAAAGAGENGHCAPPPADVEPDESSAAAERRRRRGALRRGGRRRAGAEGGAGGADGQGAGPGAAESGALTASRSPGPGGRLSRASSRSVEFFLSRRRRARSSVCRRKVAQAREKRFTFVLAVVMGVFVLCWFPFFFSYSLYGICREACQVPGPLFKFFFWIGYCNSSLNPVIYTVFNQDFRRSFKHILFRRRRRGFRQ
Protocol: as §1, §2, §3, §4

c1ccc(C(c2cnc[nH]2)c2cccc3cccnc23)nc1 (stereo not shown)
Alpha 2A intrinsic activity (efficacy) (alpha2A receptor): 0.15
EC50 (alpha2A receptor): > 10000 nM
Alpha 2B intrinsic activity (efficacy) (alpha2B receptor): 1.00
EC50 (alpha2B receptor): 22 nM
Alpha 2C intrinsic activity (efficacy) (alpha2C receptor): 0.60
EC50 (alpha2C receptor): 275 nM

c1cncc(C(c2cnc[nH]2)c2cccc3cccnc23)c1 (stereo not shown)
Alpha 2A intrinsic activity (efficacy) (alpha2A receptor): 0.50
EC50 (alpha2A receptor): 576 nM
Alpha 2B intrinsic activity (efficacy) (alpha2B receptor): 1.29
EC50 (alpha2B receptor): 2.15 nM
Alpha 2C intrinsic activity (efficacy) (alpha2C receptor): 1.16
EC50 (alpha2C receptor): 123 nM

c1ccc(C(c2cnc[nH]2)c2cccc3ncccc23)nc1 (stereo not shown)
Alpha 2A intrinsic activity (efficacy) (alpha2A receptor): 0.13
EC50 (alpha2A receptor): > 10000 nM
Alpha 2B intrinsic activity (efficacy) (alpha2B receptor): 0.45
EC50 (alpha2B receptor): 348 nM
Alpha 2C intrinsic activity (efficacy) (alpha2C receptor): 0.22
EC50 (alpha2C receptor): > 10000 nM

c1cncc(C(c2cnc[nH]2)c2cccc3ncccc23)c1 (stereo not shown)
Alpha 2A intrinsic activity (efficacy) (alpha2A receptor): 0.12
EC50 (alpha2A receptor): > 10000 nM
Alpha 2B intrinsic activity (efficacy) (alpha2B receptor): 0.90
EC50 (alpha2B receptor): 231 nM
Alpha 2C intrinsic activity (efficacy) (alpha2C receptor): 0.33
EC50 (alpha2C receptor): > 10000 nM

c1cc(C(c2ccncc2)c2cnc[nH]2)c2cccnc2c1 (stereo not shown)
EC50 (alpha2A receptor): > 10000 nM
Alpha 2B intrinsic activity (efficacy) (alpha2B receptor): 0.65
EC50 (alpha2B receptor): 771 nM
Alpha 2C intrinsic activity (efficacy) (alpha2C receptor): 0.18
EC50 (alpha2C receptor): > 10000 nM

c1ccc(C(c2cnc[nH]2)c2cccc3c2OCC3)nc1 (stereo not shown)
Alpha 2A intrinsic activity (efficacy) (alpha2A receptor): 0.23
Alpha 2B intrinsic activity (efficacy) (alpha2B receptor): 0.87
EC50 (alpha2B receptor): 9.12 nM
Alpha 2C intrinsic activity (efficacy) (alpha2C receptor): 0.86
EC50 (alpha2C receptor): 159 nM

c1cncc(C(c2cnc[nH]2)c2cccc3c2OCC3)c1 (stereo not shown)
Alpha 2A intrinsic activity (efficacy) (alpha2A receptor): 0.46
EC50 (alpha2A receptor): 430 nM
Alpha 2B intrinsic activity (efficacy) (alpha2B receptor): 1.13
EC50 (alpha2B receptor): 10 nM
Alpha 2C intrinsic activity (efficacy) (alpha2C receptor): 1.12
EC50 (alpha2C receptor): 157 nM
